Experimental data taken from PMC8523698, “Preclinical characterization of an intravenous coronavirus 3CL protease inhibitor for the potential treatment of COVID19” (Nature Communications, 2021).
Several values for one entry are separate records, joined by “and”; a condition that tells them apart may be missing. Identical values can stand only once. Like-named read-outs stand apart in the source and are kept apart here.

Assays:
[1] = Rat pharmacokinetic study; settings: for AUC(0-inf): AUCinf; for Vd: Vdss
BCRP = BCRP (Homo sapiens, UniProt Q9UNQ0); experiment: Transporter inhibition using membrane vesicles; settings: IC50, Rosuvastatin (0.2 µM)
Sequence of BCRP (Q9UNQ0 whole entry): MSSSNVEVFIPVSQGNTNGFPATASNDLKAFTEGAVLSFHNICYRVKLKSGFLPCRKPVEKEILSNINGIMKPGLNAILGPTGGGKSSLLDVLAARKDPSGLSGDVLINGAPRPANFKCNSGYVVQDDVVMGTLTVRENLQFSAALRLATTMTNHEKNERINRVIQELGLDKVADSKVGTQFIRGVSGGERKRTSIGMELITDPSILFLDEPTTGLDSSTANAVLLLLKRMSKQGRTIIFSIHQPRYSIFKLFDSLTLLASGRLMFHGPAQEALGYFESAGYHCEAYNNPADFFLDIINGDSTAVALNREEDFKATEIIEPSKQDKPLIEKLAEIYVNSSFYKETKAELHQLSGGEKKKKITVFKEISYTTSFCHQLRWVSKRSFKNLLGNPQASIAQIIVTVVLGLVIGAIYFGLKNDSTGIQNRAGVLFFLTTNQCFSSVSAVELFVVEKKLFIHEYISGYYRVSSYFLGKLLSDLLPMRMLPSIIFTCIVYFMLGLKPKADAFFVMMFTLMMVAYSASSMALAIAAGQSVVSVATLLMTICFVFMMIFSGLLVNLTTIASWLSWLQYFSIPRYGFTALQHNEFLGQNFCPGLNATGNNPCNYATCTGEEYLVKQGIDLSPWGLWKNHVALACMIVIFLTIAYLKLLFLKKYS

CYP2C19 = CYP2C19 (Homo sapiens, UniProt P33261); experiment: Reversible CYP inhibition in human liver microsomes
Sequence of CYP2C19 (P33261 whole entry): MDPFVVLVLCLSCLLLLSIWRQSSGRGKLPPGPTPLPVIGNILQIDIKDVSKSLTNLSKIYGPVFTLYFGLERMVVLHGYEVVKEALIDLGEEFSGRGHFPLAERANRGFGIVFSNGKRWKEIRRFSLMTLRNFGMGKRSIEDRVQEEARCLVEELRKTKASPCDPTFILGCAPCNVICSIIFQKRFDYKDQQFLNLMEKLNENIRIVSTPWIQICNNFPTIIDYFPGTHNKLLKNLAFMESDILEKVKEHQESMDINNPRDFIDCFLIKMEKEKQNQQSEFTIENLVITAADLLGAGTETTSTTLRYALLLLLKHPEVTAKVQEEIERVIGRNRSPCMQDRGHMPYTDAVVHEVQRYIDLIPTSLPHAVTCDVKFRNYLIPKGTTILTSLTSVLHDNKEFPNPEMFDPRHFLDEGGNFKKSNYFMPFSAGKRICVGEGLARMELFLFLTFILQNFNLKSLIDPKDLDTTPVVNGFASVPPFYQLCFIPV

OATP1B3 = target: T1, OATP1B3 (Homo sapiens, UniProt Q9NPD5); experiment: Transporter inhibition using transfected HEK293 cells
T1 sequence (Q9NPD5 1-702): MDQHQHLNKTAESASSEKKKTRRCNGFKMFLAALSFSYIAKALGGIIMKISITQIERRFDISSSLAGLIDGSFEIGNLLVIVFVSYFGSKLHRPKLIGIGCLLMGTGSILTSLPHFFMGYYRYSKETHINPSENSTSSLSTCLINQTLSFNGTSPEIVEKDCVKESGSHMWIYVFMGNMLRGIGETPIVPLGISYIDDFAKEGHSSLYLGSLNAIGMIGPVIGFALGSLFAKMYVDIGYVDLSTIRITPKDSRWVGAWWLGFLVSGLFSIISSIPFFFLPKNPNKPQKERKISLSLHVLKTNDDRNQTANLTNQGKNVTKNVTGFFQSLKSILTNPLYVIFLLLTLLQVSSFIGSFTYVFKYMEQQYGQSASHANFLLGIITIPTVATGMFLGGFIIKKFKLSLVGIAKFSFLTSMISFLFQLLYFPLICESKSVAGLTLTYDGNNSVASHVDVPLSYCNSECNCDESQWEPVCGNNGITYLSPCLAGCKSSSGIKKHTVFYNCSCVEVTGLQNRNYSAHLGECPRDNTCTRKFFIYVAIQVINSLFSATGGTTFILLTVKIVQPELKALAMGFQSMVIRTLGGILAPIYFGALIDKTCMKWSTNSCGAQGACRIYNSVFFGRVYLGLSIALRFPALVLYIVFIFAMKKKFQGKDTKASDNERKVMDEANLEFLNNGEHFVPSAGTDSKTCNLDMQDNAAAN

CYP3A4/5 = experiment: in vitro; settings: human, microsomes, pH 7.4, Percent of Control Activity, CYP 3A4/5 (mdz)
[2] = male, Wistar-Hannover, rat, plasma, iv, 2 mg/kg, Mean, PF-00835231 active dosed 2mg/kg intravenous
[3] = male, Wistar-Hannover, rat, plasma, iv, 2 mg/kg, PF-00835231 active dosed 2mg/kg intravenous, individual rats
[4] = rat, PF-00835231 active dosed 2mg/kg intravenous, individual rats, 2 mg/kg

COc1cccc2[nH]c(C(=O)N[C@@H](CC(C)C)C(=O)N[C@@H](C[C@@H]3CCNC3=O)C(=O)CO)cc12 [PF-00835231]
Vdss ([1]; Rat, 2mg/kg intravenous, individual animals, 2 mg/kg): 1.02 L/kg and 0.58 L/kg
AUC(0-inf) [1, 2]: 1250 ng·h/mL
AUC(0-inf) [1, 3]: 1230 ng·h/mL
clearance ([1]; male, Wistar-Hannover, rat, plasma, iv, 2 mg/kg, Clearance, Mean, PF-00835231 active dosed 2mg/kg intravenous): 27 mL/min/kg
clearance ([1]; male, Wistar-Hannover, rat, plasma, iv, 2 mg/kg, Clearance, PF-00835231 active dosed 2mg/kg intravenous, individual rats): 27.1 mL/min/kg
half-life ([1]; male, Wistar-Hannover, rat, plasma, iv, 2 mg/kg, Half life, Mean, PF-00835231 active dosed 2mg/kg intravenous): 43.1 min
half-life ([1]; male, Wistar-Hannover, rat, plasma, iv, 2 mg/kg, Half life, PF-00835231 active dosed 2mg/kg intravenous, individual rats): 39.2 min
half-life ([1]; male, Wistar-Hannover, rat, plasma, iv, 2 mg/kg, Terminal T1/2, rat IV, PF-07304814 […] (n=2, range), PF-00835231 2mg/kg (n=3, ± SD)): < 120 min
Vd ([1]; male, Wistar-Hannover, rat, plasma, iv, 2 mg/kg, 2mg/kg intravenous, individual animals): 0.637 L/kg
Vd ([1]; male, Wistar-Hannover, rat, plasma, iv, 2 mg/kg, Mean, 2mg/kg intravenous): 0.746 L/kg
Vd [1, 2]: 0.746 L/kg
Vd [1, 3]: 0.637 L/kg
Vd ([1]; male, Wistar-Hannover, rat, plasma, iv, 2 mg/kg, Vdss input): 0.75 L/kg
Vd ([1]; male, Wistar-Hannover, rat, plasma, iv, 2 mg/kg, rat IV, PF-07304814 […] (n=2, range), PF-00835231 2mg/kg (n=3, ± SD)): < 1.5 L/kg
clearance ([1]; male, Wistar-Hannover, rat, plasma, iv, CL, rat IV, PF-07304814 […] (n=2, range), PF-00835231 2mg/kg (n=3, ± SD)): 27 ± 3.1 mL/min/kg
half-life ([1]; male, Wistar-Hannover, rat, plasma, iv, Terminal T1/2, rat IV, PF-07304814 […] (n=2, range), PF-00835231 2mg/kg (n=3, ± SD)): 43.2 ± 7.2 min
Vd ([1]; male, Wistar-Hannover, rat, plasma, iv, rat IV, PF-07304814 […] (n=2, range), PF-00835231 2mg/kg (n=3, ± SD)): 0.75 ± 0.24 L/kg
bioavailability ([1]; male, Wistar-Hannover, rat, plasma, po, 2 mg/kg, Oral F%, rat, 2mg/kg PO vs IV): 1.4 ± 0.76%
AUC(0-t) ([1]; male, Wistar-Hannover, rat, plasma, po, 5 mg/kg, AUCt, Mean, PF-00835231 5mg/kg PO dose): 12.8 ng·h/mL
Urine Concn ([1]; rat urine 0-7 h, PF-00835231 active dosed 2mg/kg intravenous, individual rats, 2 mg/kg): 29200 ng/mL and 3180 ng/mL and 6320 ng/mL
Urine Concn ([1]; rat urine 7-24 h, PF-00835231 active dosed 2mg/kg intravenous, individual rats, 2 mg/kg): 234 ng/mL and 85.6 ng/mL and 368 ng/mL
AUCt ([1]; rat, PF-00835231 5mg/kg PO dose, individual rats, 5 mg/kg): 5.75 ng·h/mL and 18.5 ng·h/mL and 14.1 ng·h/mL
AUCinf [1, 4]: 1110 ng·h/mL and 1400 ng·h/mL
Half life [1, 4]: 51.4 min and 38.7 min
Vdss [1, 4]: 1.02 L/kg and 0.58 L/kg
clearance [1, 4]: 30 mL/min/kg and 23.8 mL/min/kg
Oral F% ([1]; rat, 2mg/kg PO vs IV, 2 mg/kg): < 2%
IC50 (BCRP): 19.5 µM
Percent of Control Activity (CYP2C19; CYP 2C19, 0.1 µM, Zero-Minute Preincubation, 0.1 µM): 97.1% and 93.1%
Percent of Control Activity (CYP2C19; CYP 2C19, 0.214 µM, 30-Minute Preincubation, 0.214 µM): 94.5% and 97.7%
Percent of Control Activity (CYP2C19; CYP 2C19, 0.214 µM, Zero-Minute Preincubation, 0.214 µM): 96.9% and 95.6%
Percent of Control Activity (CYP2C19; CYP 2C19, 0.979 µM, Zero-Minute Preincubation, 0.979 µM): 91.0% and 93.6%
Percent of Control Activity (CYP2C19; CYP 2C19, 2.09 µM, 30-Minute Preincubation, 2.09 µM): 78.6% and 76.3%
Percent of Control Activity (CYP2C19; CYP 2C19, 2.09 µM, Zero-Minute Preincubation, 2.09 µM): 89.4% and 88.4%
Percent of Control Activity (CYP2C19; CYP 2C19, 4.48 µM, 30-Minute Preincubation, 4.48 µM): 87.7% and 90.1%
Percent of Control Activity (CYP2C19; CYP 2C19, 4.48 µM, Zero-Minute Preincubation, 4.48 µM): 88.9% and 87.5%
Percent of Control Activity (CYP2C19; CYP 2C19, 20.5 µM, 30-Minute Preincubation, 20.5 µM): 82.9% and 81.5%
Percent of Control Activity (CYP2C19; CYP 2C19, 20.5 µM, Zero-Minute Preincubation, 20.5 µM): 89.8% and 81.5%
Percent of Control Activity (CYP2C19; CYP 2C19, 43.8 µM, 30-Minute Preincubation, 43.8 µM): 68.7%
Percent of Control Activity (CYP2C19; CYP 2C19, 43.8 µM, Zero-Minute Preincubation, 43.8 µM): 83.4% and 80.9%
Percent of Control Activity (CYP2C19; CYP 2C19, 93.5 µM, 30-Minute Preincubation, 93.5 µM): 66.6% and 74.6%
Percent of Control Activity (CYP2C19; CYP 2C19, 93.5 µM, Zero-Minute Preincubation, 93.5 µM): 77.3%
Percent of Control Activity (CYP2C19; CYP 2C19, 200 µM, 30-Minute Preincubation, 200 µM): 62.1% and 65.9%
Percent of Control Activity (CYP2C19; CYP 2C19, 200 µM, Zero-Minute Preincubation, 200 µM): 65.6% and 68.4%
IC50 (CYP2C19; human, microsomes, pH 7.4): > 200 µM
activity at 0.1 µM (CYP2C19; human, microsomes, pH 7.4, Percent of Control Activity, CYP 2C19, 0.1 µM, Zero-Minute Preincubation): 95.2%
activity at 0.214 µM (CYP2C19; human, microsomes, pH 7.4, Percent of Control Activity, CYP 2C19, 0.214 µM, 30-Minute Preincubation): 99%
activity at 0.214 µM (CYP2C19; human, microsomes, pH 7.4, Percent of Control Activity, CYP 2C19, 0.214 µM, Zero-Minute Preincubation): 92.9%
activity at 0.979 µM (CYP2C19; human, microsomes, pH 7.4, Percent of Control Activity, CYP 2C19, 0.979 µM, Zero-Minute Preincubation): 81.3%
activity at 2.09 µM (CYP2C19; human, microsomes, pH 7.4, Percent of Control Activity, CYP 2C19, 2.09 µM, 30-Minute Preincubation): 79.9%
activity at 2.09 µM (CYP2C19; human, microsomes, pH 7.4, Percent of Control Activity, CYP 2C19, 2.09 µM, Zero-Minute Preincubation): 85.8%
activity at 4.48 µM (CYP2C19; human, microsomes, pH 7.4, Percent of Control Activity, CYP 2C19, 4.48 µM, 30-Minute Preincubation): 88.7%
activity at 4.48 µM (CYP2C19; human, microsomes, pH 7.4, Percent of Control Activity, CYP 2C19, 4.48 µM, Zero-Minute Preincubation): 83.6%
activity at 20.5 µM (CYP2C19; human, microsomes, pH 7.4, Percent of Control Activity, CYP 2C19, 20.5 µM, 30-Minute Preincubation): 83.9%
activity at 20.5 µM (CYP2C19; human, microsomes, pH 7.4, Percent of Control Activity, CYP 2C19, 20.5 µM, Zero-Minute Preincubation): 86.2%
activity at 43.8 µM (CYP2C19; human, microsomes, pH 7.4, Percent of Control Activity, CYP 2C19, 43.8 µM, 30-Minute Preincubation): 81.3%
activity at 43.8 µM (CYP2C19; human, microsomes, pH 7.4, Percent of Control Activity, CYP 2C19, 43.8 µM, Zero-Minute Preincubation): 85%
activity at 93.5 µM (CYP2C19; human, microsomes, pH 7.4, Percent of Control Activity, CYP 2C19, 93.5 µM, 30-Minute Preincubation): 74.5%
activity at 93.5 µM (CYP2C19; human, microsomes, pH 7.4, Percent of Control Activity, CYP 2C19, 93.5 µM, Zero-Minute Preincubation): 76.8%
activity at 200 µM (CYP2C19; human, microsomes, pH 7.4, Percent of Control Activity, CYP 2C19, 200 µM, 30-Minute Preincubation): 64.9%
activity at 200 µM (CYP2C19; human, microsomes, pH 7.4, Percent of Control Activity, CYP 2C19, 200 µM, Zero-Minute Preincubation): 69.2%
IC50 (OATP1B3): 51.6 µM
IC50 (OATP1B3; human, HEK293 cells stably transfected with OATP1B3, pH 7.4, probe rosuvastatin (0.5 µM)): > 20 µM
activity at 0.1 µM (CYP3A4/5; 30-Minute Preincubation): 97.8%
activity at 0.1 µM (CYP3A4/5; Zero-Minute Preincubation): 95.2%
activity at 0.214 µM (CYP3A4/5; 30-Minute Preincubation): 121%
activity at 0.214 µM (CYP3A4/5; Zero-Minute Preincubation): 98.7%
activity at 0.979 µM (CYP3A4/5; 30-Minute Preincubation): 99.8%
activity at 0.979 µM (CYP3A4/5; Zero-Minute Preincubation): 95.5%
activity at 2.09 µM (CYP3A4/5; 30-Minute Preincubation): 99.7%
activity at 2.09 µM (CYP3A4/5; Zero-Minute Preincubation): 97.6%
activity at 4.48 µM (CYP3A4/5; 30-Minute Preincubation): 101%
activity at 4.48 µM (CYP3A4/5; Zero-Minute Preincubation): 110%
activity at 20.5 µM (CYP3A4/5; 30-Minute Preincubation): 88.2%
activity at 20.5 µM (CYP3A4/5; Zero-Minute Preincubation): 108%
